According to paper PMC8358460, “Structural basis for the binding of the cancer targeting scorpion toxin, ClTx, to the vascular endothelia growth factor receptor neuropilin-1” (Current Research in Structural Biology, 2021):
Entries after “also recorded” stand apart in the source; their conditions may differ.

Legend:
human NRP1-b1 domain [1] = biological target: T1, human NRP1-b1 domain (Homo sapiens, UniProt O14786); assay: ITC measurement of binding to NRP1-b1 domain; conditions: pH 5.5, 32 °C
human NRP1-b1 domain [2] = biological target: T1, human NRP1-b1 domain; assay: ITC competition: ClTx injected into NRP1-b1 in presence of EG00229; type: binding; conditions: 800 μM ClTx into 40 μM NRP1-b1 + 200 μM EG00229; 50 mM sodium citrate pH 5.5, 150 mM NaCl, 32 °C
human NRP1-b1 domain [3] = biological target: T1, human NRP1-b1 domain; assay: NMR competition titration of 15N-ClTx/NRP1-b1 with EG00229; type: binding; conditions: 413 μM EG00229 added to 55 μM 15N-ClTx + 125 μM NRP1-b1; 50 mM sodium citrate pH 5.5, 150 mM NaCl, 5% D2O, 298 K

T1 sequence (O14786 273-427): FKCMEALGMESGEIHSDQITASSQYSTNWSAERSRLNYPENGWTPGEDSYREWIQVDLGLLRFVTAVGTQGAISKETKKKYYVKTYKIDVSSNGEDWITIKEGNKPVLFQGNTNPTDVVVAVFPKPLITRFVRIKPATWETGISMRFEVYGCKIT

SMILES: NC(N)=NCCC[C@H](NC(=O)c1sccc1NS(=O)(=O)c1cccc2nsnc12)C(=O)O [EG00229]
- binding strength, in words (human NRP1-b1 domain [1]): strong binding
- inhibition of the ClTx–NRP1-b1 interaction by EG00229 (human NRP1-b1 domain [2]): fully inhibited; also recorded: completely blocks chlorotoxin from binding
- recovery of backbone signal of 15N ClTx on addition of EG00229 (human NRP1-b1 domain [3]): completely recovered
